Test results from ChEMBL document CHEMBL5226288, “A perspective on medicinal chemistry approaches towards adenomatous polyposis coli and Wnt signal based colorectal cancer inhibitors” (Eur J Med Chem, 2021).
≈ marks a conversion by molar mass, not a printed value.

Experiments:
DLD-1 [1] = test: Antiproliferative activity against human DLD-1 cells assessed as reduction in cell viability by MTS assay; format: functional, cell-based
[2] = target: T1, Poly [ADP-ribose] polymerase tankyrase-1 (Homo sapiens, UniProt O95271); test: Inhibition of TNKS1 (unknown origin)
T1 sequence (O95271 whole entry): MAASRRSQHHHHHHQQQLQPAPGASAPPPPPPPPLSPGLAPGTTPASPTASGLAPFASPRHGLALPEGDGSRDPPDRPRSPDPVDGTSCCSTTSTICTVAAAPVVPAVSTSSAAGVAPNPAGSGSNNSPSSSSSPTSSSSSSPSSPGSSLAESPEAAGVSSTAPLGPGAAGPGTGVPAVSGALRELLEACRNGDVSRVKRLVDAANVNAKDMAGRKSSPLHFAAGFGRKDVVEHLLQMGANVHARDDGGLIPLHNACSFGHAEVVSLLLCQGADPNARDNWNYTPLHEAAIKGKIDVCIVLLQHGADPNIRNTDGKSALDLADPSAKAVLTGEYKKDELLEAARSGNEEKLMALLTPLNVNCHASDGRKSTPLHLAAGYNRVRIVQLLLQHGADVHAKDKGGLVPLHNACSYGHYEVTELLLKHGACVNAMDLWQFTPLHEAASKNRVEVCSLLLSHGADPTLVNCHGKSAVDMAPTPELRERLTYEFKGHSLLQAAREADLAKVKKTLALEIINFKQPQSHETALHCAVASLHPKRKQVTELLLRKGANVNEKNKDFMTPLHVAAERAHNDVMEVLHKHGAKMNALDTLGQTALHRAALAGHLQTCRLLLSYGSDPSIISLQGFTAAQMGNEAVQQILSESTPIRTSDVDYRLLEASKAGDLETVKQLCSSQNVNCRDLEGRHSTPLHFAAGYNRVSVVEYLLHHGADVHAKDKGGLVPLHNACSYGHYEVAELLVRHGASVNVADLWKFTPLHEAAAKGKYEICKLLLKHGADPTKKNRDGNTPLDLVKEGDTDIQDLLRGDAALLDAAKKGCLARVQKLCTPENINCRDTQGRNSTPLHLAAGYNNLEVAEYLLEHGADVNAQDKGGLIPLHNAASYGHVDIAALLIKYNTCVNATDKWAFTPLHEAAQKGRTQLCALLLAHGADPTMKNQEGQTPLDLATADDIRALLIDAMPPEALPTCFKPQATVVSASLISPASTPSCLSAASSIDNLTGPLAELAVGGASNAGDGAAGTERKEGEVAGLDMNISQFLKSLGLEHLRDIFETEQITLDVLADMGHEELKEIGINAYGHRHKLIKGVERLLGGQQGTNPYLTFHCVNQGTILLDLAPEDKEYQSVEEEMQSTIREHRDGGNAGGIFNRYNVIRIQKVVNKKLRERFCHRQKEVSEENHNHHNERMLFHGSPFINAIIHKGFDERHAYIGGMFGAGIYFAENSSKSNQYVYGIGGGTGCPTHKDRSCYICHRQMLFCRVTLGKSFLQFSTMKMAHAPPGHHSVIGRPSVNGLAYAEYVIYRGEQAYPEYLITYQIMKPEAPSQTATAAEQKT

[3] = target: T2, Poly [ADP-ribose] polymerase tankyrase-2 (Homo sapiens, UniProt Q9H2K2); test: Inhibition of TNKS2 (unknown origin)
T2 sequence (Q9H2K2 whole entry): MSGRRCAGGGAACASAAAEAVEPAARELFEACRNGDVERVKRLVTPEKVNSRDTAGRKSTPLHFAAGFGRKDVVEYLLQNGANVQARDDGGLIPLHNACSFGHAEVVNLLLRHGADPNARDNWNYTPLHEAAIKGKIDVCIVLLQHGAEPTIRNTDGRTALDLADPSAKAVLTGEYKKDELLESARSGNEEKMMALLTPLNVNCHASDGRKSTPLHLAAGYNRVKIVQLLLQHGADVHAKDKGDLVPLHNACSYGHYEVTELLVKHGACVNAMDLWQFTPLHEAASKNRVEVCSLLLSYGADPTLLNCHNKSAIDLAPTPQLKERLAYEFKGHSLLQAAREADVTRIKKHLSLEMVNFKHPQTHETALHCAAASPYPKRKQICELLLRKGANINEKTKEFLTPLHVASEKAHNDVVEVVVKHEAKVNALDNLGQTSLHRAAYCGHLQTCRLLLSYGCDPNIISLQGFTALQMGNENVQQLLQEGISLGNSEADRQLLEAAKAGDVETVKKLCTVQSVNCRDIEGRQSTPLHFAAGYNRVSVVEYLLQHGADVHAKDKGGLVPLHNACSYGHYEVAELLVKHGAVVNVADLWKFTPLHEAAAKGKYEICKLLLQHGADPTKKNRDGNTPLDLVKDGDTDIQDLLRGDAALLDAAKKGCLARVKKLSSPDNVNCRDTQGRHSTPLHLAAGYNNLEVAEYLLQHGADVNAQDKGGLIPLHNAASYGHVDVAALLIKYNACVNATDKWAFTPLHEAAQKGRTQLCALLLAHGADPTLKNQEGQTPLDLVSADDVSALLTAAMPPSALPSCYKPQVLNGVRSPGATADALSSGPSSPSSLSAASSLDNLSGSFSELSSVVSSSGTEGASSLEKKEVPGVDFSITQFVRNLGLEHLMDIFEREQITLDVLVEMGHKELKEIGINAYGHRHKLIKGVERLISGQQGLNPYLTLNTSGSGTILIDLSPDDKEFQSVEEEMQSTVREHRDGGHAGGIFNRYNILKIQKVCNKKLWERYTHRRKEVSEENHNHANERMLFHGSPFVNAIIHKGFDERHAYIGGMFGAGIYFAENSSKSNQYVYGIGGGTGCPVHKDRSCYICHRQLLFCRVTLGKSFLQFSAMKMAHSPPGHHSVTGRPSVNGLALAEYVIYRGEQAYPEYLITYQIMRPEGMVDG

SW480 [4] = test: Antiproliferative activity against human SW480 cells assessed as inhibition of cell growth incubated for 48 hrs by MTS assay; format: functional, cell-based; conditions: SW480, 48 h
HCT-116 [5] = test: Antiproliferative activity against human HCT-116 cells assessed as decrease in cell growth incubated for 24 hrs by MTS assay; format: functional, cell-based; conditions: HCT-116, 24 h
DLD-1 [6] = test: Anticancer activity against human DLD-1 cells assessed as reduction in cell viability incubated for 48 hrs by MTT assay; format: functional, cell-based; conditions: DLD-1, 48 h
HCT-116 [7] = test: Anticancer activity against human HCT-116 cells assessed as reduction in cell viability incubated for 48 hrs by MTT assay; format: functional, cell-based; conditions: HCT-116, 48 h
SW480 [8] = test: Anticancer activity against human SW480 cells assessed as reduction in cell proliferation incubated for 72 hrs by; format: functional, cell-based
HCT-116 [9] = test: Antiproliferative activity against human HCT-116 cells assessed as reduction in cell viability incubated for 48 hrs by MTT assay; format: functional, cell-based; conditions: Homo sapiens, HCT-116, 48 h; read-out: IC50
SW480 [10] = test: Antiproliferative activity against human SW480 cells assessed as reduction in cell viability incubated for 48 hrs by MTT assay; format: functional, cell-based; conditions: SW480, 48 h
Mus musculus = species: Mus musculus; test: Anticancer activity against C57BL/6J mouse small intestine organoid assessed as decrease in cell growth and measured after 4 days by qPCR analysis; format: functional; conditions: 96 h
SW480 [11] = test: Anticancer activity against human SW480 cells assessed as reduction in cell viability incubated for 24 hrs by MTT assay; format: functional, cell-based; conditions: SW480, 24 h
HCT-116 [12] = test: Anticancer activity against human HCT-116 cells assessed as reduction in cell viability incubated for 24 hrs by MTT assay; format: functional, cell-based; conditions: HCT-116, 24 h
HCT-116 [13] = test: Anticancer activity against human HCT-116 cells assessed as decrease in cell growth incubated for 72 hrs by tryphan blue staining based cell counter analysis; format: functional; conditions: HCT-116, 72 h
[14] = target: Ubiquitin carboxyl-terminal hydrolase 7 (Homo sapiens, UniProt Q93009); test: Inhibition of recombinant full length wild type human Flag-tagged USP7 expressed in human HEK293 cells using Ub-AMC as substrate by fluorometric assay
Ubiquitin carboxyl-terminal hydrolase 7, sequence (Q93009 whole entry): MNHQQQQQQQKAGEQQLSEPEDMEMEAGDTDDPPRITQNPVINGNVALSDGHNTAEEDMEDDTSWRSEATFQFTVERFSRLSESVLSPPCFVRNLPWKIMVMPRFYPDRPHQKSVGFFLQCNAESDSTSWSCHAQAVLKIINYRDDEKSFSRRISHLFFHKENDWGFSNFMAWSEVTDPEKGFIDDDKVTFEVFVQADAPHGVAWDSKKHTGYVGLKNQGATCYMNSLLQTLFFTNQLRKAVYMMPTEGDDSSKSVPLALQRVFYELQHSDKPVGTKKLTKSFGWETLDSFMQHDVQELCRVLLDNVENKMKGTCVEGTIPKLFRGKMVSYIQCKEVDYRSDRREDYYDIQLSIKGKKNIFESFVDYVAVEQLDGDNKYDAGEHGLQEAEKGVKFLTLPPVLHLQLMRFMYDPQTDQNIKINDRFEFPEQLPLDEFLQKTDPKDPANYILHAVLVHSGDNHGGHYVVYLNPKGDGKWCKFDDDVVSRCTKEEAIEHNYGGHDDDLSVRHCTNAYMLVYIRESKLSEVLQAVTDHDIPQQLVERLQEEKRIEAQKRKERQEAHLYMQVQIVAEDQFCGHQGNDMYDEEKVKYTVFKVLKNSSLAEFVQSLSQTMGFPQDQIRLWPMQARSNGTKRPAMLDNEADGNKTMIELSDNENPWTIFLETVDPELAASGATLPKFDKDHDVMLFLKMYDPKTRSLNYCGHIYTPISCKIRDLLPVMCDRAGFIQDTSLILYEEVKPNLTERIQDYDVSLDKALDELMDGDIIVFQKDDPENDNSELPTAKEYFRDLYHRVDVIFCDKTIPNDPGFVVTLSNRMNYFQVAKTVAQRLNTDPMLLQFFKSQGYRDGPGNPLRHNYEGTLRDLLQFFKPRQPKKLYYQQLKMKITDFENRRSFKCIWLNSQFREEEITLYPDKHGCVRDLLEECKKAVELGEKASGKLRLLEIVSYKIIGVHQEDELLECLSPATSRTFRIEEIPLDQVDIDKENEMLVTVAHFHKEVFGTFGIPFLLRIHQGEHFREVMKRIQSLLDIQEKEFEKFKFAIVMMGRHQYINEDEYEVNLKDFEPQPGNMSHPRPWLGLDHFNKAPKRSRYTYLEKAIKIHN

O=c1c(-c2ccc(O)cc2)coc2cc(O)cc(O)c12 [GENISTEIN]
IC50 (DLD-1 [1]): 50 µM

Cc1ccccc1-n1c(/C=C/c2nnc(-c3ccc(C#N)cc3)o2)nnc1-c1ccc(S(C)(=O)=O)cn1
IC50 [2]: 46 nM | IC50 [3]: 25 nM

C=C1C(=O)[C@@]23[C@H](O)C[C@@H]4C(C)(C)CC[C@H](O)[C@@]4(COC(C)=O)[C@@H]2CC[C@H]1[C@H]3O
IC50 (SW480 [4]): 16.8 µM

O=C(O[C@@H]1Cc2c(O)cc(O)cc2O[C@@H]1c1cc(O)c(O)c(O)c1)c1cc(O)c(O)c(O)c1 [EPIGALOCATECHIN GALLATE]
IC50 (HCT-116 [5]): 5 µM

CCCCCCCCCCCCCC(C(=O)O)C(O)(CC(=O)OC)C(=O)O (centres undefined)
IC50 (DLD-1 [6]): 100 µM | IC50 (HCT-116 [7]): 100 µM

CC(=O)O[C@@H]1C(=O)c2c(O)cc(O)cc2O[C@H]1c1ccccc1
IC50 (SW480 [8]): 45.6 µg/mL (≈ 145 µM)

C=C1C(=O)[C@@]23[C@H](O)CC4C(C)(C)[C@@H](OC(C)=O)CC[C@@]4(C)[C@@H]2[C@@H]2O[C@@H]2[C@@H]1[C@H]3O (some centres undefined)
IC50 (HCT-116 [9]): 20 µM | IC50 (SW480 [10]): 20 µM

CS(=O)(=O)c1ccccc1N1CCN(c2nc(O)c3c(n2)CCSC3)CC1
IC50 (Mus musculus): 110 nM

CC1=C(CO)C(=O)O[C@@H]([C@@H](C)[C@H]2CC[C@H]3[C@@H]4C[C@H]5O[C@]56[C@@H](O)C=CC(=O)[C@]6(C)[C@H]4CC[C@]23C)C1 [WITHAFERIN A]
IC50 (SW480 [11]): 4.9 µM | IC50 (HCT-116 [12]): 3.7 µM

C=C1C(=O)[C@]23C[C@H]1CCC2[C@@]1(C)C([C@@H](O)[C@@H]3O)[C@](C)(C(=O)O)CC[C@@H]1O (some centres undefined)
IC50 (HCT-116 [13]): 4.07 µM

CC(C)(C)[Si](OC[C@@]1(C)C2CC[C@@]3(CO3)[C@@H](C/C=C3/C(=O)OC[C@H]3O)[C@]2(C)CC[C@H]1O)(c1ccccc1)c1ccccc1 (some centres undefined)
IC50 (SW480 [11]): 16.1 µM | IC50 (HCT-116 [12]): 18.2 µM

C=C1C(=O)O[C@@H]2[C@H]3O[C@]3(C)CC/C=C(\C)CC[C@@H]12
IC50 [14]: 6.58 µM

COc1ccc(C2(CNC(=O)c3ccc(NC(=O)c4ccco4)cc3)CCOCC2)cc1
IC50 [2]: 1900 nM | IC50 [3]: 850 nM
